The values below come from article PMC9021566, “Design, Synthesis, and Antitumor Activity Study of All-Hydrocarbon-Stapled B1-Leu Peptides” (Frontiers in Chemistry, 2022).

Bridge positions count the residues as written; N and C are the ends. Square brackets hold non-standard residues; d marks the D form. Ends that are not written are not given here. Peptide text beside a SMILES is read from it. R8 = C=CCCCCCC[C@@](C)(N)C(=O)O; S5 = C=CCCC[C@](C)(N)C(=O)O

One may read the half-life as how long it takes for the measured level to halve. The low end stands for fast loss, the high end for slow loss. Broadly, the IC50 is the concentration that gives 50% inhibition.

Data set [1] can be described thus: On-resin ring-closing olefin metathesis (all-hydrocarbon stapling, S5/S5 i,i+4 or R8/S5 i,i+7), first-generation Grubbs catalyst (3 equiv); then Fmoc removal, TFA cleavage, RP-HPLC. As to conditions: the molecule shown is the open-chain precursor, 21-membered ring, 1,2-dichloroethane (dry), 25.0 °C, 4.0 h.
The next data set addresses α-chymotrypsin (Bos taurus, UniProt P00766). Briefly: in vitro. As to conditions: for Degradation during protease exposure: 1 h. The protocol: Peptides in DMSO solution (1 mM) was mixed with α-chymotrypsin in PBS buffer (0.5 ng/μl) containing 2 mM CaCl2 and incubated at 37°C. The percentage of peptide was measured by HPLC at 0, 5, 10, 20, 30, and 60 min([Wang et al., 2020]).

Data set [2] is described as follows: Circular dichroism spectroscopy, percent helicity. Type of data set: physicochemical. As to conditions: CD, TFE/water (1:1), 0.1 mg/ml, 20°C. As for the experimental part:
Peptides were dissolved in TFE/water (1:1, v/v, 0.1 mg/ml). CD data were recorded in 10-mm path length, a quartz cell at 20°C. Percent helicity was calculated by the following equation ([Wang et al., 2006]). α=[θ]222/[θ]max×100% [θ]222 is the molar ellipticity of 222 nm; [θ]max = (−44,000 + 250T) (1 − k/n), where k = 4, n is the numbers of amino acids, and T = 20°C.

A further data set relates to U87. The note with it: read-out: IC50 U87; CCK-8, 48 h. As for the experimental part: (§1) MCF-7, HUH-7, U87, and Nthy-ori 3-1 cell lines were used to test cell viability. All the cell lines were cultured in a humid environment at 37°C with 5% CO2. The anticancer activity of B1 and its derivatives were evaluated by the CCK-8 reagent. All peptides tested were dissolved in DMSO and finally added to each well in 1‰ volume. The cells were seeded in a 96-well plate at a number of 5 × 10^3 cells per well. After overnight incubation, they were administered with different concentrations of peptides. Ten percent CCK-8 solution without FBS was added to each well after 48 h. After incubation at 37°C for 30 min, the optical density (OD) at 450 nm was recorded with a microplate reader ([Deng et al., 2015]).

The subject of the next data set is MCF-7. The note with it: read-out: IC50 MCF-7; CCK-8, 48 h. The protocol:
as §1

A further data set concerns HUH-7. As to conditions: read-out: IC50 HUH-7; CCK-8, 48 h. As for the experimental part:
as §1

The test system of another data set is rabbit red blood cells. The note with it: 4% rabbit red blood cells, 1 h, 37°C. The protocol: Two hundred microliters of 4% rabbit red blood cells in a 96-well plate was added different concentrations of peptides. After 1 h of incubation at 37°C and following centrifugation, the release of hemoglobin was monitored by the absorbance at 450 nm of supernatant. Zero hemolysis was determined without adding any other reagents, and 100% hemolysis was determined in 10% Triton X-100. Hemolysis percentage hemolysis was calculated as: (Apeptide − Ablank)/(ATriton − Ablank) × 100%. All hemolysis determinations were conducted in three repeated experiments ([Deng et al., 2015]).

Where [3] appears, read: α-chymotrypsin (0.5 ng/μl) in PBS buffer.

On to `C=CCCC[C@](C)(NC(=O)[C@H](CCCNC(=N)NS(=O)(=O)c1c(C)c(C)c2c(c1C)CC(C)(C)O2)NC(=O)[C@H](Cc1ccccc1)NC(=O)[C@H](Cc1ccccc1)NC(=O)[C@](C)(CCCC=C)NC(=O)[C@H](CCCCNC(=O)OC(C)(C)C)NC(=O)[C@H](Cc1ccccc1)NC(=O)[C@H](CCCNC(=N)NS(=O)(=O)c1c(C)c(C)c2c(c1C)CC(C)(C)O2)NC(=O)[C@H](CCCCNC(=O)OC(C)(C)C)NC(=O)[C@@H](NC(=O)OCC1c2ccccc2-c2ccccc21)C(C)C)C(=O)N[C@@H](CC(C)C)C(=O)N[C@@H](CCCCNC(=O)OC(C)(C)C)C(=O)N[C@@H](CCCCNC(=O)OC(C)(C)C)C(=O)N[C@@H](CC(C)C)C(=O)N[C@H](C(N)=O)C(C)C`, for which the ring closure, overall yield in data set [1] was 66%.

Consider `C=CCCC[C@](C)(NC(=O)[C@H](Cc1ccccc1)NC(=O)[C@H](Cc1ccccc1)NC(=O)[C@H](CCCCNC(=O)OC(C)(C)C)NC(=O)[C@](C)(CCCC=C)NC(=O)[C@H](Cc1ccccc1)NC(=O)[C@H](CCCNC(=N)NS(=O)(=O)c1c(C)c(C)c2c(c1C)CC(C)(C)O2)NC(=O)[C@H](CCCCNC(=O)OC(C)(C)C)NC(=O)[C@@H](NC(=O)OCC1c2ccccc2-c2ccccc21)C(C)C)C(=O)N[C@@H](CCCCNC(=O)OC(C)(C)C)C(=O)N[C@@H](CC(C)C)C(=O)N[C@@H](CCCCNC(=O)OC(C)(C)C)C(=O)N[C@@H](CCCCNC(=O)OC(C)(C)C)C(=O)N[C@@H](CC(C)C)C(=O)N[C@H](C(N)=O)C(C)C`, for which the ring closure, overall yield in data set [1] amounted to 64%.

As for `CC(C)C[C@H](NC(=O)[C@H](CCCCN)NC(=O)[C@H](CCCNC(=N)N)NC(=O)[C@H](Cc1ccccc1)NC(=O)[C@H](Cc1ccccc1)NC(=O)[C@]1(C)CCC/C=C\CCC[C@](C)(NC(=O)[C@@H](N)C(C)C)C(=O)N[C@@H](CCCNC(=N)N)C(=O)N[C@@H](Cc2ccccc2)C(=O)N[C@@H](CCCCN)C(=O)N1)C(=O)N[C@@H](CCCCN)C(=O)N[C@@H](CCCCN)C(=O)N[C@@H](CC(C)C)C(=O)N[C@H](C(N)=O)C(C)C` [B1-L-1, VS5RFKS5FFRKLKKLV-NH2] (H-V[S5]RFK[S5]FFRKLKKLV-NH2; staple (Z) 2-6), the half-life on α-chymotrypsin (α-chymotrypsin) is above 60 min. In data set [2], the “Helicity (%)” value is 47.2%.

Regarding `CC(C)C[C@H](NC(=O)[C@H](CCCCN)NC(=O)[C@]1(C)CCCC=CCCC[C@](C)(NC(=O)[C@H](Cc2ccccc2)NC(=O)[C@H](CCCNC(=N)N)NC(=O)[C@H](CCCCN)NC(=O)[C@@H](N)C(C)C)C(=O)N[C@@H](CCCCN)C(=O)N[C@@H](Cc2ccccc2)C(=O)N[C@@H](Cc2ccccc2)C(=O)N1)C(=O)N[C@@H](CCCCN)C(=O)N[C@@H](CCCCN)C(=O)N[C@@H](CC(C)C)C(=O)N[C@H](C(N)=O)C(C)C` [B1-L-2, VKRFS5KFFS5KLKKLV-NH2] (H-VKRF[S5]KFF[S5]KLKKLV-NH2; staple 5-9; N-terminus assumed), the IC50 came to 8.86 ± 1.43 µM with U87, 6.59 ± 0.42 µM in the data set on MCF-7 and 6.18 ± 0.63 µM in the data set on HUH-7. Also, the half-life at α-chymotrypsin (setting [3]) is above 60 min. In addition, the “HC50, half hemolysis concentration” value with rabbit red blood cells was above 80 µM. For the same compound, the “Helicity (%)” value in data set [2] stood at 35.5%.

For the compound `CC(C)C[C@H](NC(=O)[C@H](CCCCN)NC(=O)[C@H](CCCCN)NC(=O)[C@H](CC(C)C)NC(=O)[C@]1(C)CCCC=CCCC[C@](C)(NC(=O)[C@H](CCCCN)NC(=O)[C@H](Cc2ccccc2)NC(=O)[C@H](CCCNC(=N)N)NC(=O)[C@H](CCCCN)NC(=O)[C@@H](N)C(C)C)C(=O)N[C@@H](Cc2ccccc2)C(=O)N[C@@H](Cc2ccccc2)C(=O)N[C@@H](CCCNC(=N)N)C(=O)N1)C(=O)N[C@H](C(N)=O)C(C)C` [B1-L-3, VKRFKS5FFRS5LKKLV-NH2] (H-VKRFK[S5]FFR[S5]LKKLV-NH2; staple 6-10; N-terminus assumed), the IC50 came to 3.59 ± 1.2 µM in the data set with U87, 5.48 ± 0.89 µM with MCF-7 and 5.96 ± 0.54 µM in the data set with HUH-7. The compound also displayed a half-life at α-chymotrypsin (setting [3]) above 60 min. Further, in the data set with rabbit red blood cells, the “HC50, half hemolysis concentration” value is above 80 µM. Further, the “Helicity (%)” value in data set [2] is given as 37%.

As to `CC(C)C[C@@H]1NC(=O)[C@H](CCCCN)NC(=O)[C@@](C)(NC(=O)[C@H](Cc2ccccc2)NC(=O)[C@H](Cc2ccccc2)NC(=O)[C@H](CCCCN)NC(=O)[C@H](CCCCN)NC(=O)[C@H](Cc2ccccc2)NC(=O)[C@H](CCCNC(=N)N)NC(=O)[C@H](CCCCN)NC(=O)[C@@H](N)C(C)C)CCCC=CCCC[C@@](C)(C(=O)N[C@@H](CC(C)C)C(=O)N[C@H](C(N)=O)C(C)C)NC(=O)[C@H](CCCCN)NC1=O` [B1-L-4, VKRFKKFFS5KLKS5LV-NH2] (H-VKRFKKFF[S5]KLK[S5]LV-NH2; staple 9-13; N-terminus assumed), the IC50 with U87 was 17.9 ± 3.23 µM; in the data set on MCF-7, 15.2 ± 1.02 µM; in the data set with HUH-7, 13.4 ± 1.92 µM. The half-life at α-chymotrypsin (setting [3]) is above 60 min. The “HC50, half hemolysis concentration” value with rabbit red blood cells is above 80 µM. Moreover, the “Helicity (%)” value in data set [2] was 35%.

Regarding `CC(C)C[C@H](NC(=O)[C@H](CCCCN)NC(=O)[C@]1(C)CCCC=CCCCCCC[C@@](C)(NC(=O)[C@@H](N)C(C)C)C(=O)N[C@@H](CCCNC(=N)N)C(=O)N[C@@H](Cc2ccccc2)C(=O)N[C@@H](CCCCN)C(=O)N[C@@H](CCCCN)C(=O)N[C@@H](Cc2ccccc2)C(=O)N[C@@H](Cc2ccccc2)C(=O)N1)C(=O)N[C@@H](CCCCN)C(=O)N[C@@H](CCCCN)C(=O)N[C@@H](CC(C)C)C(=O)N[C@H](C(N)=O)C(C)C` [B1-L-5, VR8RFKKFFS5KLKKLV-NH2] (H-V[R8]RFKKFF[S5]KLKKLV-NH2; staple 2-9; N-terminus assumed), the IC50 in the data set on U87 amounted to 14.3 ± 2.35 µM; in the data set on MCF-7 it was 14 ± 0.73 µM; with HUH-7 it was 13.8 ± 1.53 µM. The half-life on α-chymotrypsin (setting [3]) was above 60 min. Besides, the “HC50, half hemolysis concentration” value in the data set on rabbit red blood cells was above 80 µM. The “Helicity (%)” value in data set [2] is reported as 24.8%.

For `CC(C)C[C@H](NC(=O)[C@H](CCCCN)NC(=O)[C@]1(C)CCCC=CCCCCCC[C@@](C)(NC(=O)[C@H](Cc2ccccc2)NC(=O)[C@H](CCCNC(=N)N)NC(=O)[C@H](CCCCN)NC(=O)[C@@H](N)C(C)C)C(=O)N[C@@H](CCCCN)C(=O)N[C@@H](Cc2ccccc2)C(=O)N[C@@H](Cc2ccccc2)C(=O)N[C@@H](CCCNC(=N)N)C(=O)N[C@@H](CCCCN)C(=O)N[C@@H](CC(C)C)C(=O)N1)C(=O)N[C@H](C(N)=O)C(C)C` [B1-L-6, VKRFR8KFFRKLS5KLV-NH2] (H-VKRF[R8]KFFRKL[S5]KLV-NH2; staple 5-12; N-terminus assumed), the values for the IC50 in the data set on U87, in the data set with MCF-7 and in the data set on HUH-7 were 4.58 ± 0.93 µM, 5.15 ± 1.04 µM and 5.89 ± 0.43 µM, respectively. On α-chymotrypsin (setting [3]), this compound came in with a half-life of 55.3 min. In addition, the “HC50, half hemolysis concentration” value in the data set with rabbit red blood cells was above 80 µM. In addition, in data set [2], the “Helicity (%)” value amounted to 39.8%.

As to `CC(C)C[C@@H]1NC(=O)[C@H](CCCCN)NC(=O)[C@H](CCCNC(=N)N)NC(=O)[C@H](Cc2ccccc2)NC(=O)[C@H](Cc2ccccc2)NC(=O)[C@](C)(NC(=O)[C@H](CCCCN)NC(=O)[C@H](Cc2ccccc2)NC(=O)[C@H](CCCNC(=N)N)NC(=O)[C@H](CCCCN)NC(=O)[C@@H](N)C(C)C)CCCCCCC=CCCC[C@@](C)(C(=O)N[C@@H](CC(C)C)C(=O)N[C@H](C(N)=O)C(C)C)NC(=O)[C@H](CCCCN)NC1=O` [B1-L-7, VKRFKR8FFRKLKS5LV-NH2] (H-VKRFK[R8]FFRKLK[S5]LV-NH2; staple 6-13; N-terminus assumed), the IC50 in the data set with U87 was 12.7 ± 1.63 µM; in the data set with MCF-7 it was 13.4 ± 1.22 µM; in the data set on HUH-7, 7.49 ± 1.2 µM. The half-life on α-chymotrypsin (setting [3]) is above 60 min. Also, the “HC50, half hemolysis concentration” value with rabbit red blood cells was above 80 µM. Besides, the “Helicity (%)” value in data set [2] is listed as 31.6%.

In the case of “VKRFKKFFRKLKKLV-NH2 [B1-Leu, VKRFKKFFRKLKKLV-NH2]”, the IC50 in the data set with U87 stood at 16.2 ± 3.32 µM; with MCF-7, 13.4 ± 0.53 µM; with HUH-7, 11.8 ± 0.72 µM. This compound also had a half-life on α-chymotrypsin (setting [3]) of 8.5 min. In addition, the “Degradation during protease exposure” value at α-chymotrypsin (α-chymotrypsin) was “completely degraded”. The “HC50, half hemolysis concentration” value in the data set with rabbit red blood cells was above 80 µM. Further, the “Helicity (%)” value in data set [2] came out at 23.5%.

For the compound “VKRFKKFFRKLKKSV-NH2 [B1, VKRFKKFFRKLKKSV-NH2, reference compound]”, the IC50 in the data set with U87, with MCF-7 and in the data set with HUH-7 was above 50 µM in each case. In addition, at α-chymotrypsin (setting [3]), the half-life came out at 8.3 min. Moreover, on α-chymotrypsin (α-chymotrypsin), the “Degradation during protease exposure” value was “completely degraded”. Besides, the “HC50, half hemolysis concentration” value in the data set with rabbit red blood cells is above 80 µM. Besides, the “Helicity (%)” value in data set [2] is listed as 8.9%.
